Measured values taken from paper PMC9797592, “TJ-M2010-5, a novel CNS drug candidate, attenuates acute cerebral ischemia-reperfusion injury through the MyD88/NF-κB and ERK pathway” (Frontiers in Pharmacology, 2022).

What was measured:
NF-κB p65 = NF-κB p65 nuclear translocation in LPS-stimulated BV-2 cells, immunofluorescence; type: cell-based; conditions: 12 h after LPS stimulation
Protocol: BV-2 microglial and SH-SY5Y cells were cultured as previously described ([Zhao et al., 2020]). A lipopolysaccharide (LPS)-stimulated BV-2 cell model was established to mimic severe neuroinflammation induced by multiple inflammatory mediators after reperfusion ([Li et al., 2021]). BV-2 cells were pretreated with different concentrations of TJ-5 for 2 h before LPS (1 μg/ml) stimulation (#L2880, Sigma, United States). […] In addition, ST2825, a recognized MyD88 inhibitor, was used as positive control group.
For BV-2 cells immunofluorescence staining, the cells were fixed with 4% paraformaldehyde for 10 min and permeabilized with 0.5% Triton X-100 for 10 min. After blocking with goat serum, the cells were sequentially incubated with the primary antibody, secondary antibody, and Hoechst in sequence. Images were captured using a confocal microscope. The fluorescence intensity was analyzed using ImageJ software.

CIRI mice [1] = assay: Immunofluorescence staining (NeuN, TUNEL, Iba-1) of brain slices of CIRI mice; type: in vivo, C57BL/6 mice
Protocol: As mentioned previously, immunofluorescence staining was performed on paraffin-embedded brain slices ([Ye et al., 2020]). After standard histological procedures, the slices were treated with the TUNEL (terminal deoxynucleotidyl transferase dUTP nick end labeling) reaction mixture to detect apoptosis according to the manufacturer’s protocol (Roche, Germany). Furthermore, the slices were used for immunofluorescence with rabbit anti-NeuN antibody (1:300, CST) and rabbit anti-Iba-1 antibody (1:500, CST). After incubating overnight at 4°C, goat anti-rabbit IgG (1:1000) secondary antibodies were applied, and the brain slices were incubated for 2 h at room temperature. Finally, the slices were washed and labeled with 4′,6-diamidino-2-phenylindole for 10 min at room temperature. Images were captured using a fluorescence microscope.

CIRI mice [2] = assay: RT-qPCR and ELISA of inflammatory factors in the brain of CIRI mice; type: in vivo, C57BL/6 mice; conditions: TJ-5 15 mg/kg i.v. after 1 h ischemia
Protocol: Total mRNA was extracted from the brain cortex using TRIzol reagent and reverse-transcribed into cDNA using the PrimeScript™ RT reagent kit (Takara, Japan), following the manufacturer’s instructions. RT-qPCR was performed using SYBR Green Real-time PCR Master Mix (Takara, Japan) with the Step One System (Life Technologies). The results were expressed as fold change from the untreated control and analyzed using the 2^−ΔΔCt method. The primers were as follows (5′–3′): MyD88 forward: TTTATCTGCTACTGCCCCAACG, reverse: GCGGCGACACCTTTTCTCA; TLR4 forward: ATGCTGCAACTGATGTTCCTTC, reverse: GATGTTAGACCTTTCTTCCTCCC; GAPDH forward: TGTTCCTACCCCCAATGTGTCC, reverse: GGAGTTGCTGTTGAAGTCGCAG; TNF-α forward: ATGGCCTCCCTCTCATCAGT, reverse: TGGTTTGCTACGACGTGGG; IL-6 forward: AGTGGCTAAGGACCAAGAC, reverse: ATAACGCACTAGGTTTGCCGA; iNOS forward: ATTCACAGCTCATCCGGTACG, reverse: GGATCTTGACCATCAGCTTGC; IL-1β forward: GCACTACAGGCTCCGAGATGAA, reverse: GTCGTTGCTTGGTTCTCCTTGT.
Enzyme-linked immunosorbent assay (ELISA) kits were used to detect the levels of TNF-α, IL-1β, and IL-6 in the brain. Brain tissue was homogenized in 1 ml of phosphate-buffered saline using a tissue homogenizer. […] BV-2 cells were incubated with different treatments and the supernatants were collected and measured.

CIRI mice [3] = assay: MCAO cerebral ischemia-reperfusion injury model: neurological deficit score and TTC infarct volume; type: in vivo, C57BL/6 mice
Protocol: Male C57BL/6 mice (Beijing Vital River Laboratory Animal Technology Co. Ltd., Beijing, China) weighing 22–28 g and aged 8–10 weeks were used. All animal experiments were approved by the Institutional Animal Care and Use Committee of Tongji Hospital (Wuhan, China). All procedures were performed in accordance with specific pathogen-free standards. Mice were randomly divided into the following seven groups: sham, I/R, vehicle (I/R + saline), I/R + TJ-5 (5 mg/kg), I/R + TJ-5 (10 mg/kg), I/R + TJ-5 (15 mg/kg), and I/R + edaravone (3 mg/kg).
The mice were anesthetized with 1% pentobarbital sodium solution via intraperitoneal injection, and the body temperature was maintained at 37.0°C–37.5°C. The middle cerebral artery occlusion (MCAO) model was established according to the Longa method, as described previously ([Longa et al., 1989]). In brief, the right carotid artery was carefully separated and exposed. A silicon-coated embolic suture (Doccol, United States) was inserted slowly from the external carotid artery (ECA) into the internal carotid artery (ICA) until it reached the middle cerebral artery (MCA). After 1 h of ischemia, the embolic suture was withdrawn. The surgical procedure in the sham group was the same as that in the I/R group, but the MCA was not obstructed.
After 24 h of reperfusion, each group of mice was scored blindly, according to the scoring system of the Longa method ([Longa et al., 1989]). The score was 0 for no obvious neurological deficit, one for inability to fully extend the left forelimb, two for turning to the left, three for leaning to the left while walking, and four for the inability to walk spontaneously and impaired consciousness.
The mice were sacrificed 24 h after I/R. Mouse brains were harvested for the measurement of cerebral infarct volume. The brains were frozen at −80°C for 5 min and cut into five 2-mm thick slices. The slices were then placed in a small dish, 2% 2,3,5-triphenyltetrazolium chloride (TTC) solution (Sigma, United States) was added, and 4% paraformaldehyde was used for fixation. Images were captured using a digital camera. ImageJ software was used to measure the volume of the brain infarction.

[4] = system: OGD/R-stimulated BV-2 cells; assay: OGD/R-stimulated BV-2 cells: TNF-α/IL-6 ELISA; type: cell-based
Protocol: Enzyme-linked immunosorbent assay (ELISA) kits were used to detect the levels of TNF-α, IL-1β, and IL-6 in the brain. Brain tissue was homogenized in 1 ml of phosphate-buffered saline using a tissue homogenizer. Then, the homogenates were centrifuged at 14,000 g for 10 min at 4 °C. The supernatant was immediately transferred for measurement following the manufacturer’s instructions. BV-2 cells were incubated with different treatments and the supernatants were collected and measured.

## O=C(CCN1CCN(Cc2ccccc2)CC1)Nc1nc(-c2ccccc2)cs1 [TJ-5]
NF-κB p65
  LPS-induced NF-κB p65 nuclear translocation: significantly prevented
CIRI mice [1]; TJ-5 15 mg/kg i.v. after 1 h ischemia
  apoptosis (TUNEL) in whole brain and ischemic penumbra of the cortex: significantly reduced
CIRI mice [1]; TJ-5 15 mg/kg vs vehicle group
  number of neurons (NeuN) in the injured hemisphere: significantly increased
CIRI mice [1]; TJ-5 15 mg/kg, vs I/R group
  number of Iba-1 positive cells in cortex: significantly decreased
CIRI mice [2]; RT-qPCR
  iNOS (with TNF-α, IL-6, IL-1β) mRNA expression levels in the brain: downregulated
CIRI mice [2]; RT-qPCR and ELISA
  expression of TNF-α, IL-1β, and IL-6 in the brain (mRNA and protein): reduced
CIRI mice [3]; TJ-5 15 mg/kg i.v. at 1 h of ischemia, 24 h reperfusion, TTC, I/R group 34.24%
  percentage of infarct volume: 8.47%
CIRI mice [3]; TJ-5 15 mg/kg vs I/R group, 24 h reperfusion, Longa score
  neurological deficit score: significantly lower
CIRI mice [3]; intravenous TJ-5 at 4 h reperfusion, TTC at 24 h after reperfusion
  infarct volume: effectively reduced infarct volume
[4]
  levels of TNF-α and IL-6 in supernatants: markedly reduced
